Results: patent publication US20230085307A1, “PYRIDAZINONE COMPOUND AND HERBICIDE” (NISSAN CHEMICAL CORPORATION, priority 2019, published 2023)

Columns and labels:
[1] = tested on: barnyard grass; experiment: Test Example 3: herbicidal effect by foliage application, Wagner pot (Table 18, symbol H); type: in vivo, barnyard grass (Echinochloa crus-galli); conditions: 320 g/ha
Outline: (§1)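 Plants were sown in alluvial soil held under 0.1–0.5 cm standing water and grown 14 days in a greenhouse at 25–30 °C. An emulsifiable formulation, water-diluted to the set dose, was then sprayed onto the foliage, and effects were scored three weeks later using previously defined criteria.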

[2] = tested on: Chinese sprangletop; experiment: Test Example 3: herbicidal effect by foliage application, Wagner pot (Table 18, symbol D); type: in vivo, chinese sprangletop (Leptochloa chinensis); conditions: 320 g/ha
Outline: as §1

[3] = tested on: rice flat sedge; experiment: Test Example 3: herbicidal effect by foliage application, Wagner pot (Table 18, symbol E); type: in vivo, rice flat sedge (Cyperus iria); conditions: 320 g/ha
Outline: as §1

[4] = tested on: southern crabgrass; experiment: Test Example 4: herbicidal effect by soil treatment (Table 19, symbol F); type: in vivo, southern crabgrass (Digitaria ciliaris); conditions: amount of applied herbicide 320 g/ha
Outline: (§2)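 In this soil treatment, the formulated compound reached the seeds only through the soil: seeds were buried about 1.5 cm deep in sterilized diluvial soil, then the diluted emulsion was sprayed over the surface. After three weeks at 25° C. to 30° C. in a greenhouse, effects were graded on criteria from an earlier test.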

[5] = tested on: green foxtail; experiment: Test Example 4: herbicidal effect by soil treatment (Table 19, symbol G); type: in vivo, green foxtail (Setaria viridis); conditions: amount of applied herbicide 320 g/ha
Outline: as §2

[6] = tested on: barnyard grass; experiment: Test Example 4: herbicidal effect by soil treatment (Table 19, symbol H); type: in vivo, barnyard grass (Echinochloa crus-galli); conditions: amount of applied herbicide 320 g/ha
Outline: as §2

[7] = tested on: wild oat; experiment: Test Example 4: herbicidal effect by soil treatment (Table 19, symbol I); type: in vivo, wild oat (Avena fatua); conditions: amount of applied herbicide 320 g/ha
Outline: as §2

[8] = tested on: blackgrass; experiment: Test Example 4: herbicidal effect by soil treatment (Table 19, symbol J); type: in vivo, blackgrass (Alopecurus myosuroides); conditions: amount of applied herbicide 320 g/ha
Outline: as §2

[9] = tested on: Italian ryegrass; experiment: Test Example 4: herbicidal effect by soil treatment (Table 19, symbol K); type: in vivo, Italian ryegrass (Lolium multiflorum); conditions: amount of applied herbicide 320 g/ha
Outline: as §2

[10] = tested on: windgrass; experiment: Test Example 4: herbicidal effect by soil treatment (Table 19, symbol L); type: in vivo, windgrass (Apera spica-venti); conditions: amount of applied herbicide 320 g/ha
Outline: as §2

[11] = tested on: velvetleaf; experiment: Test Example 4: herbicidal effect by soil treatment (Table 19, symbol M); type: in vivo, velvetleaf (Abutilon theophrasti); conditions: amount of applied herbicide 320 g/ha
Outline: as §2

[12] = tested on: redroot pigweed; experiment: Test Example 4: herbicidal effect by soil treatment (Table 19, symbol N); type: in vivo, redroot pigweed (Amaranthus retroflexus); conditions: amount of applied herbicide 320 g/ha
Outline: as §2

[13] = tested on: lambsquarters; experiment: Test Example 4: herbicidal effect by soil treatment (Table 19, symbol O); type: in vivo, lambsquarters (Chenopodium album); conditions: amount of applied herbicide 320 g/ha
Outline: as §2

[14] = tested on: chickweed; experiment: Test Example 4: herbicidal effect by soil treatment (Table 19, symbol P); type: in vivo, common chickweed (Stellaria media); conditions: amount of applied herbicide 320 g/ha
Outline: as §2

[15] = tested on: false cleavers; experiment: Test Example 4: herbicidal effect by soil treatment (Table 19, symbol Q); type: in vivo, false cleavers (Galium spurium); conditions: amount of applied herbicide 320 g/ha
Outline: as §2

[16] = tested on: persian speedwell; experiment: Test Example 4: herbicidal effect by soil treatment (Table 19, symbol R); type: in vivo, Persian speedwell (Veronica persica); conditions: amount of applied herbicide 320 g/ha
Outline: as §2

[17] = tested on: southern crabgrass; experiment: Test Example 5: herbicidal effect by foliage application, plastic box (Table 20, symbol F); type: in vivo, southern crabgrass (Digitaria ciliaris); conditions: foliage application, 320 g/ha, three weeks after application
Outline: (§3)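 Plants were sown into sterilized diluvial soil under about 1.5 cm cover and kept in a greenhouse at 25° C. to 30° C. Fourteen days on, foliage received an even spray of the diluted emulsion. Herbicidal or crop effect was judged three weeks afterwards.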

[18] = tested on: green foxtail; experiment: Test Example 5: herbicidal effect by foliage application, plastic box (Table 20, symbol G); type: in vivo, green foxtail (Setaria viridis); conditions: foliage application, 320 g/ha, three weeks after application
Outline: as §3

[19] = tested on: barnyard grass; experiment: Test Example 5: herbicidal effect by foliage application, plastic box (Table 20, symbol H); type: in vivo, barnyard grass (Echinochloa crus-galli); conditions: foliage application, 320 g/ha, three weeks after application
Outline: as §3

[20] = tested on: wild oat; experiment: Test Example 5: herbicidal effect by foliage application, plastic box (Table 20, symbol I); type: in vivo, wild oat (Avena fatua); conditions: foliage application, 320 g/ha, three weeks after application
Outline: as §3

[21] = tested on: blackgrass; experiment: Test Example 5: herbicidal effect by foliage application, plastic box (Table 20, symbol J); type: in vivo, blackgrass (Alopecurus myosuroides); conditions: foliage application, 320 g/ha, three weeks after application
Outline: as §3

[22] = tested on: Italian ryegrass; experiment: Test Example 5: herbicidal effect by foliage application, plastic box (Table 20, symbol K); type: in vivo, Italian ryegrass (Lolium multiflorum); conditions: foliage application, 320 g/ha, three weeks after application
Outline: as §3

[23] = tested on: windgrass; experiment: Test Example 5: herbicidal effect by foliage application, plastic box (Table 20, symbol L); type: in vivo, windgrass (Apera spica-venti); conditions: foliage application, 320 g/ha, three weeks after application
Outline: as §3

[24] = tested on: velvetleaf; experiment: Test Example 5: herbicidal effect by foliage application, plastic box (Table 20, symbol M); type: in vivo, velvetleaf (Abutilon theophrasti); conditions: foliage application, 320 g/ha, three weeks after application
Outline: as §3

[25] = tested on: redroot pigweed; experiment: Test Example 5: herbicidal effect by foliage application, plastic box (Table 20, symbol N); type: in vivo, redroot pigweed (Amaranthus retroflexus); conditions: foliage application, 320 g/ha, three weeks after application
Outline: as §3

[26] = tested on: lambsquarters; experiment: Test Example 5: herbicidal effect by foliage application, plastic box (Table 20, symbol O); type: in vivo, lambsquarters (Chenopodium album); conditions: foliage application, 320 g/ha, three weeks after application
Outline: as §3

[27] = tested on: chickweed; experiment: Test Example 5: herbicidal effect by foliage application, plastic box (Table 20, symbol P); type: in vivo, common chickweed (Stellaria media); conditions: foliage application, 320 g/ha, three weeks after application
Outline: as §3

[28] = tested on: persian speedwell; experiment: Test Example 5: herbicidal effect by foliage application, plastic box (Table 20, symbol R); type: in vivo, Persian speedwell (Veronica persica); conditions: foliage application, 320 g/ha, three weeks after application
Outline: as §3

SMILES: CCCC(=O)Oc1c(C)nn(C)c(=O)c1-c1c(-c2ccc(F)cc2SC)sc2ccccc12 [1-064]
- herbicidal effect on H (barnyard grass), rating 0-5 [1]: 3 (Herbicidal rate of 40% or more and less than 70%)
- herbicidal effect on D (Chinese sprangletop), rating 0-5 [2]: 0 (Herbicidal rate of 5% or less (almost no effect))
- herbicidal effect on E (rice flat sedge), rating 0-5 [3]: 3 (Herbicidal rate of 40% or more and less than 70%)
- herbicidal effect rating, F: southern crabgrass [4]: 0 (Herbicidal rate of 5% or less (almost no effect))
- herbicidal effect rating, G: green foxtail [5]: 0 (Herbicidal rate of 5% or less (almost no effect))
- herbicidal effect rating, H: barnyard grass [6]: 0 (Herbicidal rate of 5% or less (almost no effect))
- herbicidal effect rating, I: wild oat [7]: 0 (Herbicidal rate of 5% or less (almost no effect))
- herbicidal effect rating, J: blackgrass [8]: 0 (Herbicidal rate of 5% or less (almost no effect))
- herbicidal effect rating, K: Italian ryegrass [9]: 0 (Herbicidal rate of 5% or less (almost no effect))
- herbicidal effect rating, L: windgrass [10]: 0 (Herbicidal rate of 5% or less (almost no effect))
- herbicidal effect rating, M: velvetleaf [11]: 0 (Herbicidal rate of 5% or less (almost no effect))
- herbicidal effect rating, N: redroot pigweed [12]: 0 (Herbicidal rate of 5% or less (almost no effect))
- herbicidal effect rating, O: lambsquarters [13]: 0 (Herbicidal rate of 5% or less (almost no effect))
- herbicidal effect rating, P: chickweed [14]: 3 (Herbicidal rate of 40% or more and less than 70%)
- herbicidal effect rating, Q: false cleavers [15]: 0 (Herbicidal rate of 5% or less (almost no effect))
- herbicidal effect rating, R: persian speedwell [16]: 0 (Herbicidal rate of 5% or less (almost no effect))
- herbicidal effect grade, F: southern crabgrass [17]: 0 (Herbicidal rate of 5% or less (almost no effect))
- herbicidal effect grade, G: green foxtail [18]: 0 (Herbicidal rate of 5% or less (almost no effect))
- herbicidal effect grade, H: barnyard grass [19]: 0 (Herbicidal rate of 5% or less (almost no effect))
- herbicidal effect grade, I: wild oat [20]: 0 (Herbicidal rate of 5% or less (almost no effect))
- herbicidal effect grade, J: blackgrass [21]: 0 (Herbicidal rate of 5% or less (almost no effect))
- herbicidal effect grade, K: Italian ryegrass [22]: 0 (Herbicidal rate of 5% or less (almost no effect))
- herbicidal effect grade, L: windgrass [23]: 0 (Herbicidal rate of 5% or less (almost no effect))
- herbicidal effect grade, M: velvetleaf [24]: 0 (Herbicidal rate of 5% or less (almost no effect))
- herbicidal effect grade, N: redroot pigweed [25]: 0 (Herbicidal rate of 5% or less (almost no effect))
- herbicidal effect grade, O: lambsquarters [26]: 0 (Herbicidal rate of 5% or less (almost no effect))
- herbicidal effect grade, P: chickweed [27]: 4 (Herbicidal rate of 70% or more and less than 90%)
- herbicidal effect grade, R: persian speedwell [28]: 0 (Herbicidal rate of 5% or less (almost no effect))
